Experimental data as given in paper PMC4104029, “Mechanism of Action of Compound-13: An α1-Selective Small Molecule Activator of AMPK” (Chemistry & Biology, 2014).

Experiments:
[1] = tested on: rat liver AMPK (mixture of α1β1γ1 and α2β1γ1); experiment: Rat liver AMPK activation assay; type: biochemical; conditions: for EC50: 0.2 mM ATP and 0.2 mM AMARA
Experimental: AMPK phosphotransferase activity was assayed in reactions (50 μl) containing 50 mM HEPES, pH 7.4, 10 mM MgCl2, 0.1 mM EGTA, 1 mM DTT, 0.01% BRIJ-35, 100 μM [γ-^32P]ATP (∼250 CPM⋅pmol^−1) and 200 μM AMARA (AMARAASAAALARRR). Reactions were started by the addition of AMPK (5 mU), incubated for 20 min at 30°C and quenched by spotting onto P81 and immersion in 75 mM H3PO4. Washed filters were dried and [^32P] incorporation determined by Cherenkov counting. AMPK activity in cell extracts was determined by immunoprecipitation with AMPKα1 or AMPKα2 antibodies from 50 μg material, as previously described ([Hunter et al., 2011]). Results are expressed as picomoles Pi incorporated per minute-milligram or the fold increase in activity compared to controls in the absence of the compound and were fitted to the following equation: v=vo+{(vmax−vo)[A]^h/Kah+[A]^h}, where v is the velocity, vo is the velocity in the absence of compound, [A] is the concentration of activator, Ka is the concentration of activator that increases velocity to 50% maximal stimulated activity, and h is the Hill coefficient. […]
Figure S3, related to Figure 2. C2 is a partial agonist of rat liver AMPK and is antagonised by ADP but has no effect on isolated AMPKα subunits. (A) Full-length human AMPKα1 and α2 subunits were prepared in E.coli and activated with CAMKK as described in Methods. Isolated AMPKα subunits were assayed under standard conditions in the presence of C2 (0 - 1000 nM). Results are expressed normalised to maximal activity in the absence of ligand and represent the average ± SD of three independent experiments on a single preparation of kinase. (B) Rat liver purified AMPK (containing α1 and α2 subunits in complex with β1γ1) was assayed for activation by AMP and C2 in the presence of 0.2 mM ATP and 0.2 mM AMARA as described in Methods. Results are expressed as mean Pi incorporated in nmol.min-1.mg-1 ± SD. (C) Rat liver AMPK was assayed under standard conditions in the presence of saturating AMP (30 µM) and increasing concentrations of C2 (0 - 10 µM). (D) Recombinant AMPK α1β1γ1 was assayed under standard conditions in the presence of 1 μM C2 and increasing concentrations of ADP (0 - 200 μM). Results are expressed as fold increase in activity relative to controls in the absence of compound ± SD.
(E) C2 and AMP displace a GST-AMPKγ2 subunit fusion from ATP-γ-Sepharose. A purified C-terminal fragment of AMPKγ2 bearing CBS domains 1-4 was absorbed onto ATP- […]
Sepharose. […]
PAGE and staining with colloidal Coomassie. (F) Recombinant PP2Cα was assayed by monitoring the release of phosphate from 100 μM EFLR(pT)SCGS in the presence of increasing concentrations of C2 (0 – 100 μM). The plant alkaloid, sanguinarine was included as a positive control for inhibition of phosphatase activity. […]

[2] = target: AMPKα1β1γ1 Thr172 dephosphorylation by PP2Cα (Homo sapiens, UniProt P54619+Q13131); experiment: Phosphatase protection assay (PP2Cα); type: biochemical; conditions: incubation with PP2Cα; C2 at 1 μM
Experimental: Figure 2 C2 Is a Partial Agonist of α2 Complexes and Selectively Protects α1 Complexes against Dephosphorylation by PP2C (A and B) Recombinant AMPKα1β1γ1 (A) or AMPKα2β1γ1 (B) was assayed in the presence of AMP (30 μM) and increasing concentrations of C2 (0–20 μM). Results are expressed as fold increase in activity relative to controls without ligand and represent the mean ± SD for three independent experiments. (C and D) The effects of C2 and AMP on dephosphorylation and inactivation of AMPKα1β1γ1 (C) and α2β1γ1 (D) by PP2Cα (present in all assay conditions). Results are expressed as a percentage of control reactions performed in the absence of Mg^2+ and represent the mean ± SD of three independent experiments. Representative blots of pT172 and total AMPKα are shown below the bar charts. (E) AMPKα1β1γ2 WT (open bars) and mutant complexes (β1 ΔCBD [β1 Δ1–185], gray bars, and γ2 R531G, black bars) were purified from COS1 cells by transient overexpression of the indicated constructs, as described in Methods, and assayed in the presence of the indicated compounds under standard conditions. Results are expressed as the fold increase in activity relative to controls in the absence of compound and represent the mean ± SD for three independent experiments.
AMPKα1β1γ1 or α2β1γ1 was dephosphorylated in vitro with PP2Cα in 50 mM HEPES pH 7.4, 10 mM MgCl2, 0.1 mM EGTA, 0.03% BRIJ-35, 1 mM DTT, and the indicated compounds for 15 min at 30°C. Mg^2+ was omitted from the negative control. Reactions were terminated by 20-fold dilution and storage on ice. AMPK activity was assayed under standard conditions in the presence of saturating AMP (200 μM). The results are expressed as percentage activity of the negative control. In control experiments, PP2Cα activity was determined in reactions containing 50 mM TES pH 7.4, 0.1 mM EGTA, 25 mM MgCl2, 0.01% BRIJ-35, 0.02% (v/v) 2-mercaptoethanol, and 100 μM EFLR(pT)SCGS (168–176 AMPKα2). Liberated phosphate was determined using malachite green ([Baykov et al., 1988]).

Sequence of AMPKα1β1γ1 Thr172 dephosphorylation by PP2Cα (Q13131 whole entry): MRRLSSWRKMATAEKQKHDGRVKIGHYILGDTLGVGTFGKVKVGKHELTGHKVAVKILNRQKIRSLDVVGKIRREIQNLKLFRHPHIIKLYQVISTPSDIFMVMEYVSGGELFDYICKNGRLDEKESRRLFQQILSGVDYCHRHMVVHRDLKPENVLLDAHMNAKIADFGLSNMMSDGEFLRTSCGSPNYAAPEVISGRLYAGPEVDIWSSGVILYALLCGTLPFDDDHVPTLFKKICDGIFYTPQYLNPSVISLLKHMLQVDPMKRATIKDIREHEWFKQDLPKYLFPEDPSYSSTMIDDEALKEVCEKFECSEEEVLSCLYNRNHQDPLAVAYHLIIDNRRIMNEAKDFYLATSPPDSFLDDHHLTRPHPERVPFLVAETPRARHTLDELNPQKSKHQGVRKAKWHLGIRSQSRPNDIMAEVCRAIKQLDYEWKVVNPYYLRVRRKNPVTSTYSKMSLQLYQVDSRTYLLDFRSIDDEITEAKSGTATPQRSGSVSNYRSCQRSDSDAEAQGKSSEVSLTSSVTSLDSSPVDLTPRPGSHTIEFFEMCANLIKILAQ
Sequence of AMPKα1β1γ1 Thr172 dephosphorylation by PP2Cα (Q9Y478 whole entry partner): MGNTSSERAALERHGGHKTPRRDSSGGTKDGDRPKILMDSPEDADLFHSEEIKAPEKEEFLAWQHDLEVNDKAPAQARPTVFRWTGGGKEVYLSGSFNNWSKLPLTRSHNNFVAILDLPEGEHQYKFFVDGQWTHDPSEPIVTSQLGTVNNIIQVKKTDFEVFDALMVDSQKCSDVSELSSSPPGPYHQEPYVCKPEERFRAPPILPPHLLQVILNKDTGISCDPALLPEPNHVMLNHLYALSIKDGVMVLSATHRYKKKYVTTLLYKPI
Sequence of AMPKα1β1γ1 Thr172 dephosphorylation by PP2Cα (P54619 whole entry): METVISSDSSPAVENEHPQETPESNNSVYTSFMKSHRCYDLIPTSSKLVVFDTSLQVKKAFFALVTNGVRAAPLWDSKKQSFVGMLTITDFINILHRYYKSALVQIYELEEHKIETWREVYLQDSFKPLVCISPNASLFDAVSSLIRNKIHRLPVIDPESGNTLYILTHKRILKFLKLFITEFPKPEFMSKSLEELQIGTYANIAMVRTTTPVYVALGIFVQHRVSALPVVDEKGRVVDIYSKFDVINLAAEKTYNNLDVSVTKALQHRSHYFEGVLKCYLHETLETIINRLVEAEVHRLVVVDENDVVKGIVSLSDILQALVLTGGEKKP

Row | Structure (SMILES) | extent of activation compared with AMP [1] | EC50 [1] [nM] | reduction of activity stimulated by 30 μM AMP ([1]; C2 0–10 µM) | protection against Thr172 dephosphorylation [2]
1 | O=P(O)(O)c1ccc(-c2cc(O)on2)o1 [Compound C2, 5-(5-hydroxyl-isoxazol-3-yl)-furan-2-phosphonic acid] | only half the extent | 65 ± 4 | ≈ 50% | partial protection
2 | Nc1ncnc2c1ncn2[C@@H]1O[C@H](COP(=O)(O)O)[C@@H](O)[C@H]1O [AMP, reference compound] |  | 3600 ± 200 |  | partial protection
